Laboratory results: PubChem BioAssay (NCI)
Where “and” joins values, the source holds several entries; their conditions need not be identical. Equal entries are not always repeated.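 In this assay, cells in 96-well plates receive the compound at five concentrations for 48 hours. Endpoints are linearly interpolated between the surrounding concentrations. GI50 = concentration required for 50% inhibition of growth. TGI: total growth inhibition.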 *1 amine or outer side, *2 acyl side, *3 side chain or, on linkers, in order; H or OH if unused. Where a SMILES comes first, the peptide text is derived from it. Bridges are numbered along the chain shown (N, C = ends). [ ]: non-standard residue; d: D form. The star is where a group is joined. Phe(3-Me) = Cc1cccc(C[C@H](N)C(=O)O)c1; NH(4-Cl-2-F-phenyl) = Fc1cc(Cl)ccc1N*; Pro(4R-Me) = C[C@H]1CN[C@H](C(=O)O)C1; Propanoyl(3-NMe2) = CN(C)CCC(=O)*; Hyp = O=C(O)[C@@H]1C[C@@H](O)CN1; aThr = C[C@H](O)[C@H](N)C(=O)O; Pip = O=C(O)[C@@H]1CCCCN1; CO = O=C([*:1])[*:2]

Assays:
Assay in all cases: inhibition of tumour cell growth, NCI panel, 48 h
[1] = tested on: SF-268 CNS
[2] = tested on: OVCAR-4 ovarian
[3] = tested on: MCF7 breast
[4] = tested on: A549 NSCLC
[5] = tested on: NCI-H522 lung
[6] = tested on: 786-0 renal
[7] = tested on: OVCAR-3 ovarian
[8] = tested on: NCI-H23 lung
[9] = tested on: HT29 colon
[10] = tested on: DU-145 prostate

Compound	GI50 [1]	TGI [1]	GI50 [2]	TGI [2]	GI50 [3]	TGI [3]	GI50 [4]	TGI [4]	GI50 [5]	TGI [5]	GI50 [6]	TGI [6]	GI50 [7]	TGI [7]	GI50 [8]	TGI [8]	GI50 [9]	TGI [9]	GI50 [10]	TGI [10]
COc1cc(C2C(C#N)=C(N)Oc3cc(O)ccc32)cc(OC)c1OC (stereo not given)	14.5 µM	> 100 µM	2.14 µM	> 100 µM	0.334 µM	> 100 µM	0.625 µM	> 100 µM	0.281 µM	3.85 µM	0.668 µM	> 100 µM	0.317 µM	0.851 µM	0.62 µM	> 100 µM	0.39 µM	11.8 µM	0.659 µM	> 100 µM
CC([O-])C(=O)[O-].NCC1CCC1CN.[Pt+4] (stereo not given)	> 10 µM	> 10 µM	> 10 µM	> 10 µM	6.89 µM	> 10 µM	> 10 µM	> 10 µM	> 10 µM	> 10 µM	> 10 µM	> 10 µM	> 10 µM	> 10 µM	> 10 µM	> 10 µM	> 10 µM	> 10 µM	> 10 µM	> 10 µM
COC(=O)C1C2CCCN2OC1(C)CO (stereo not given)		> 100 µM		> 100 µM		> 100 µM		> 100 µM		> 100 µM		> 100 µM		> 100 µM		> 100 µM		> 100 µM		> 100 µM
COc1ccc(-c2coc3cc(OC)cc(O)c3c2=O)cc1		> 100 µM		> 100 µM		> 100 µM		> 100 µM		> 100 µM		> 100 µM		> 100 µM		> 100 µM		> 100 µM		> 100 µM
CC[C@@]1(O)C(=O)OCc2c1cc1n(c2=O)Cc2c-1nc1ccccc1c2/C=N/OC(C)(C)C	< 0.01 µM	2.8 µM	0.311 µM	13.9 µM	< 0.01 µM	5.69 µM	< 0.01 µM	1.52 µM	< 0.0124 µM	0.0812 µM	< 0.01 µM	11.2 µM	0.0804 µM	1.78 µM	< 0.01 µM	0.158 µM	0.0187 µM	0.66 µM	< 0.01 µM	13.5 µM
CC/C=C\C/C=C\C[C@H]1C/C=C2/C(=O)C=C[C@H]2C/C=C\CCC(=O)O1	3.31 µM	10.4 µM	5.22 µM	> 14.3 µM	0.824 µM	11.8 µM	3.96 µM	12.2 µM	1.83 µM	5.32 µM	3.13 µM	7.45 µM	2.11 µM	5.01 µM	3.03 µM	8.31 µM	2.55 µM	6.49 µM	4.33 µM	> 14.3 µM
S=C(N/N=C(/c1ccccc1)c1ccccn1)Nc1cccc(Cl)c1	2.33 µM	16.6 µM	1.1 µM	3.67 µM and 15.9 µM	0.00544 µM	0.918 µM and 6.01 µM	1.82 µM	5.56 µM and 7.58 µM	1.12 µM	2.4 µM	0.675 µM	2.51 µM and 5.56 µM	< 0.001 µM	1.98 µM and 4.59 µM	1.35 µM	5.58 µM and 16.8 µM	0.662 µM and 0.0738 µM	11.9 µM	2.97 µM	9.43 µM
COc1ccc(CNc2nc(NCc3ccc(OC)cc3)c3n[nH]c(C(C)C)c3n2)cc1	5.58 µM	26.3 µM	1.76 µM	17.5 µM	3.31 µM	13.9 µM	7.25 µM	> 100 µM	2.26 µM	4.51 µM	4.07 µM	20.6 µM	3.04 µM	14.5 µM	4.09 µM	18.3 µM	1.61 µM	10.7 µM	11.4 µM	36.5 µM
CCc1ccc(Nc2cc(C)nc3nc(C)nn23)cc1	69.1 µM	> 100 µM	27.7 µM	> 100 µM	36.7 µM	> 100 µM	45.4 µM	> 100 µM	42.3 µM	> 100 µM	> 100 µM	> 100 µM	37.8 µM	> 100 µM	> 100 µM	> 100 µM	39.8 µM	> 100 µM	35.1 µM	> 100 µM
Cc1cccc(C[C@H](NC(=O)Nc2ccc(Cl)cc2F)C(=O)N[C@@H]2C(=O)N3C[C@H](OC(=O)CCN(C)C)C[C@H]3C(=O)N3CCCC[C@H]3C(=O)N[C@@H](C)C(=O)N3C[C@H](C)C[C@H]3C(=O)O[C@H]2C)c1 ({NH(4-Cl-2-F-phenyl)-CO}-[Phe(3-Me)][aThr][Hyp](Propanoyl(3-NMe2))[Pip]A[Pro(4R-Me)]; ester 2-C)	0.466 µM	4.08 µM	0.334 µM	2.06 µM	0.394 µM	1.83 µM	0.526 µM	11.2 µM	0.495 µM	2.47 µM	1.39 µM	5.66 µM	0.362 µM	1.47 µM	0.519 µM	3.17 µM	0.526 µM	2.82 µM	0.514 µM	5.86 µM
C=C(CN1CCN(c2cccc(F)c2)CC1)c1ccc(C(=O)Nc2ccccc2N)cc1	2.3 µM	> 100 µM	3.35 µM	33.9 µM	0.691 µM	> 100 µM	3.24 µM	16.3 µM	0.848 µM	3.88 µM	1.84 µM	13 µM	1.94 µM	17.7 µM	1.77 µM	17.3 µM	1.09 µM	4.06 µM	1.8 µM	7.16 µM
CN1CCCCC1CCN1c2ccccc2Sc2ccc(S(C)=O)cc21 (stereo not given)		> 100 µM		> 100 µM		> 100 µM		> 100 µM		> 100 µM		> 100 µM		> 100 µM		> 100 µM		> 100 µM		> 100 µM
O=c1cccc(C#CC#C/C=C/CO)o1	2.44 µM	17.1 µM	3.1 µM	> 100 µM	2.23 µM		3.65 µM	13.1 µM	1.45 µM		3.72 µM	> 27.5 µM	2.33 µM	6.12 µM	1.73 µM	3.18 µM	3.89 µM	> 100 µM	3.4 µM	12.4 µM
COc1cc2c3c(c4c5ccccc5[nH]c4c2c(OC)c1OC)C(=O)N(CCN1CCCCC1)C3=O	1.15 µM	2.96 µM	1.26 µM	3.14 µM	0.734 µM	3.09 µM	0.611 µM	2.3 µM	0.794 µM	2.76 µM	1.27 µM	2.87 µM	1.31 µM	2.77 µM	1.12 µM	2.68 µM	0.417 µM	1.88 µM	1.22 µM	2.54 µM
O=C1OC2C(O)C(=O)OC2C1O (stereo not given)		> 100 µM		> 100 µM		> 100 µM		> 100 µM		> 100 µM		> 100 µM		> 100 µM		> 100 µM		> 100 µM		> 100 µM
Cn1c(=S)sc2nc3ccccc3n2c1=S		24.7 µM		42.3 µM		5.49 µM		97.5 µM		15.1 µM		33.6 µM		25.4 µM		30.7 µM		25.8 µM		19 µM
CSc1nc2c(c(=O)[nH]1)C(c1ccc(Cl)cc1)C1=C(N2)/C(=C/c2ccc(Cl)cc2)CNC1 (stereo not given)	2.76 µM		4.76 µM	19.2 µM	1.94 µM	5.85 µM	2.21 µM	5.91 µM	1.85 µM	4.81 µM	2.02 µM	4.46 µM	2.23 µM	5.19 µM	2.48 µM	5.84 µM	2.05 µM	5.09 µM	3.36 µM	11.6 µM
O=C1c2ccccc2C(=O)c2c1ccc1c2OCO1		> 100 µM		> 100 µM		> 100 µM		> 100 µM		> 100 µM		> 100 µM		> 100 µM		> 100 µM		> 100 µM		> 100 µM
NC[C@@](O)(c1ccc(Cl)cc1)c1ccc(-c2cn[nH]c2)cc1	1.24 µM and 1.28 µM	> 100 µM	1.4 µM	2.86 µM	1.1 µM	2.54 µM	1.5 µM and 1.41 µM	4.08 µM and 3.21 µM	1.45 µM	3.53 µM	0.341 µM and 0.473 µM	10.6 µM and 2.2 µM	3.22 µM and 1.96 µM	> 25.6 µM and 4.44 µM		> 100 µM	1.98 µM	7.26 µM	3.27 µM and 2.49 µM	> 100 µM
C=C1N(C)c2ccc(Cl)cc2C1(C)C	5.71 µM	> 100 µM	4.83 µM	> 100 µM	6.65 µM	58.7 µM	17.4 µM	> 100 µM	5.91 µM	74.8 µM	16.9 µM	96.1 µM	4.95 µM	38.2 µM	5.47 µM	> 100 µM	3.24 µM	18.6 µM	6.66 µM	> 100 µM
CNC1C(OC2C(OC3C(O)C(O)C(O)C(O)C3O)OC(C)C2(O)CO)OC(CO)C(O)C1O (stereo not given) (tested in a mixture with another compound)		> 100 µM		> 100 µM		> 100 µM		> 100 µM		> 100 µM		> 100 µM		> 100 µM		> 100 µM		> 100 µM		> 100 µM
CC(=O)c1ccc(NCN2C(=O)c3ccccc3C2=O)cc1		> 100 µM		> 100 µM		> 100 µM		> 100 µM		> 100 µM		> 100 µM		> 100 µM		> 100 µM		> 100 µM		> 100 µM
CCN1CCN(C(=O)[C@]23CCC(C)(C)C[C@@H]2C2=CC[C@@H]4[C@@]5(C)C/C(=C/c6cccnc6)C(=O)C(C)(C)[C@@H]5CC[C@@]4(C)[C@]2(C)CC3)CC1	1.59 µM	4.79 µM	2.17 µM	7.85 µM	1.4 µM	3.07 µM	2.62 µM	13.4 µM	1.61 µM	3.75 µM	1.6 µM	3.08 µM	1.51 µM	2.95 µM	2.1 µM	5.85 µM	1.71 µM	4.67 µM	1.83 µM	3.88 µM
CC1=CC2C(C(C)C)CC1C1C(=O)OC(=O)C21 (stereo not given)		> 100 µM		> 100 µM		> 100 µM		> 100 µM		> 100 µM		> 100 µM		58.8 µM		> 100 µM		> 100 µM		> 100 µM
N=c1ccn2c(n1)O[C@@H]1[C@@H](O)[C@H](CO)O[C@@H]12	4.8 µM	> 100 µM	10.4 µM	> 100 µM	0.234 µM	> 100 µM	0.41 µM	> 100 µM	0.294 µM	> 100 µM	2.46 µM	50.3 µM		> 100 µM	1.09 µM	> 100 µM	17 µM	> 100 µM	2.42 µM	> 100 µM
CC(C)Oc1ccc(C(=O)N[C@H](CNC(=O)CN(C)C)Cc2ccc(-c3cn4cccc([C@H](C)O)c4n3)cc2)cc1Cl	0.0727 µM	20.9 µM	0.316 µM	18.7 µM	0.0366 µM	19.5 µM	0.0507 µM	22.1 µM	0.0229 µM	0.0698 µM	0.0578 µM	17.8 µM	0.0393 µM	15.7 µM	0.0566 µM	21.5 µM	0.035 µM	13 µM	0.0385 µM	13.1 µM
C[C@]12CC[C@H]3[C@@H](C[C@@H]4N=C(c5ccc(O)cc5)S[C@@]45C[C@H](O)CC[C@]35C)[C@@H]1CC[C@@H]2O	5.32 µM	> 100 µM	7.24 µM	> 100 µM	3.34 µM	21.5 µM	5.95 µM	> 100 µM	22.6 µM	> 100 µM	0.423 µM	2.39 µM	8.67 µM	83.7 µM	14 µM	> 100 µM	3.13 µM	20.4 µM	9.54 µM	> 100 µM
